Measured values from patent publication US20230406839A1, “Bifunctional Compounds And Methods Of Using The Same” (The General Hospital Corporation, priority 2020, published 2023).

How the values were obtained:
HeLa cells [1] = experiment: Azide metabolic labeling of HeLa cells, detected with DBCO-FAM in a fluorescent plate reader; type: cell-based; conditions: AzNAM 25-125 μM for 20 hours, then DBCO-FAM 10 μM for 1 hour, 96-well plate reader (FIG. 1)
Description: Initially, cells are cultured in a suitable culture vessel such that their level of confluency at the time of addition of the azide-modified sugar AzNAM is not more than 80%.
In particular, HeLa cells were plated in 6-well plates (2.5×10^4 cells/well) and incubated for 48 hours in DMEM-10% FBS medium in a standard 5% CO2 atmosphere. Medium from each well was removed, and each well was washed with 2 ml of phosphate buffered saline (PBS), and fresh DMEM-FBS (1 ml) added. Subsequently, varying amounts of AzNAM (solubilized in DMSO) were added to the wells in small (10 μl) volumes to produce the desired final concentrations in the range 25-125 μM. After an additional 20 hours incubation, the medium in each well was removed, and the wells were washed with 2 ml of PBS, followed by addition of 1 ml of PBS. Then, a fluorescent bio-orthogonally azide-reactive reagent DBCO-FAM (Broadpharm) was directly added to each well to produce a final concentration of 10 μM.
Plates with added DBCO-FAM were protected from bright light and incubated for 1 hour at room temperature. Supernatants in each well were then removed, and each well was washed twice with 2 ml of PBS. […] After pelleting and washing in PBS, cells were resuspended in 150 μl of PBS and counted. Defined numbers in 50 μl volumes in a 96-well Blackwell plate (Corning) were assayed for fluorescence in a fluorescent plate reader (Tecan).

HeLa cells [2] = experiment: Azide metabolic labeling of HeLa cells, detected with DBCO-FAM by flow cytometry; type: cell-based; conditions: AzNAM 125 μM for 20 hours, versus cells receiving no azide-modified sugar (FIG. 2)
Description: In separate trials, HeLa cells were added to wells of a 12-well plate at 10,000 cells/well, and cultured for 72 hours under normal conditions. The wells were then washed with 1 ml of PBS, and 0.5 ml of DMEM-10% FBS was added. AzNAM was then added to a final concentration of 125 μM, with cells receiving no azide-modified sugar as controls. After 20 hours, cells were harvested with CellStripper (250 μl/well), washed with PBS, and subjected to flow analysis.

azido-N-acetylmannosamine [AzNAM]
cell-associated fluorescence after reaction with DBCO-FAM (HeLa cells [1]): cell-associated fluorescence increased as a function of the levels of AzNAM | flow cytometry peak shift after reaction with DBCO-FAM (HeLa cells [2]): marked and well-demarcated peak shifts were observed
